From the NIST ThermoML archive (doi:10.1016/j.jct.2004.12.014)

Columns and labels:
[1] = xn = mol fraction of the nth substance listed; conditions: 318.15 K, 101 kPa, Liquid
[2] = excess molar enthalpy (molar enthalpy of mixing); xn = mol fraction of the nth substance listed; conditions: 318.15 K, 101 kPa, Liquid

CCCCCCCCCCCCCCC [pentadecane] + CCCOC(=O)CC
Conditions | excess molar enthalpy [kJ/mol] | excess molar volume [m3/mol]
[1], x2 = 0.0571 | – | 1.92e-07
[1], x2 = 0.121 | – | 3.65e-07
[1], x2 = 0.2189 | – | 6.37e-07
[1], x2 = 0.3124 | – | 8.36e-07
[1], x2 = 0.3919 | – | 9.5e-07
[1], x2 = 0.4644 | – | 1.011e-06
[1], x2 = 0.5327 | – | 1.042e-06
[1], x2 = 0.5945 | – | 1.032e-06
[1], x2 = 0.6507 | – | 9.93e-07
[1], x2 = 0.7004 | – | 9.51e-07
[1], x2 = 0.7486 | – | 8.75e-07
[1], x2 = 0.7919 | – | 7.84e-07
[1], x2 = 0.8316 | – | 6.85e-07
[1], x2 = 0.8692 | – | 5.77e-07
[1], x2 = 0.9037 | – | 4.49e-07
[1], x2 = 0.9384 | – | 3.2e-07
[1], x2 = 0.9689 | – | 1.72e-07
[2], x2 = 0.0908 | 0.406 | –
[2], x2 = 0.2077 | 0.809 | –
[2], x2 = 0.3159 | 1.11 | –
[2], x2 = 0.4097 | 1.29 | –
[2], x2 = 0.481 | 1.38 | –
[2], x2 = 0.538 | 1.4 | –
[2], x2 = 0.5826 | 1.39 | –
[2], x2 = 0.6208 | 1.37 | –
[2], x2 = 0.6333 | 1.35 | –
[2], x2 = 0.6724 | 1.29 | –
[2], x2 = 0.7191 | 1.19 | –
[2], x2 = 0.7668 | 1.07 | –
[2], x2 = 0.8087 | 0.938 | –
[2], x2 = 0.8594 | 0.756 | –
[2], x2 = 0.9086 | 0.537 | –
[2], x2 = 0.96 | 0.274 | –

CCCCCCCCCCCCCCC [pentadecane] + CCOC(=O)CC
Conditions | excess molar enthalpy [kJ/mol] | excess molar volume [m3/mol]
[1], x2 = 0.0586 | – | 2.35e-07
[1], x2 = 0.1287 | – | 4.67e-07
[1], x2 = 0.2483 | – | 8.47e-07
[1], x2 = 0.3372 | – | 1.053e-06
[1], x2 = 0.4269 | – | 1.184e-06
[1], x2 = 0.502 | – | 1.246e-06
[1], x2 = 0.5673 | – | 1.252e-06
[1], x2 = 0.6288 | – | 1.223e-06
[1], x2 = 0.6845 | – | 1.156e-06
[1], x2 = 0.7304 | – | 1.087e-06
[1], x2 = 0.7744 | – | 9.92e-07
[1], x2 = 0.8148 | – | 8.88e-07
[1], x2 = 0.8537 | – | 7.69e-07
[1], x2 = 0.8864 | – | 6.38e-07
[1], x2 = 0.919 | – | 5.21e-07
[1], x2 = 0.9481 | – | 3.55e-07
[1], x2 = 0.9742 | – | 1.89e-07
[2], x2 = 0.1045 | 0.533 | –
[2], x2 = 0.2122 | 0.948 | –
[2], x2 = 0.3158 | 1.31 | –
[2], x2 = 0.4055 | 1.52 | –
[2], x2 = 0.4848 | 1.64 | –
[2], x2 = 0.5368 | 1.67 | –
[2], x2 = 0.5811 | 1.67 | –
[2], x2 = 0.6068 | 1.64 | –
[2], x2 = 0.6156 | 1.64 | –
[2], x2 = 0.6409 | 1.6 | –
[2], x2 = 0.6796 | 1.53 | –
[2], x2 = 0.7199 | 1.43 | –
[2], x2 = 0.761 | 1.31 | –
[2], x2 = 0.8036 | 1.14 | –
[2], x2 = 0.846 | 0.959 | –
[2], x2 = 0.8889 | 0.758 | –
[2], x2 = 0.9311 | 0.518 | –
[2], x2 = 0.9692 | 0.257 | –

CCCCCOC(=O)CC [pentyl propanoate] + CCCCCCC
Conditions | excess molar enthalpy [kJ/mol] | excess molar volume [m3/mol]
[1], x1 = 0.0556 | – | 6.6e-08
[1], x1 = 0.1092 | – | 1.1e-07
[1], x1 = 0.182 | – | 1.41e-07
[1], x1 = 0.217 | – | 1.68e-07
[1], x1 = 0.2721 | – | 1.85e-07
[1], x1 = 0.3275 | – | 1.96e-07
[1], x1 = 0.3857 | – | 1.98e-07
[1], x1 = 0.4428 | – | 1.92e-07
[1], x1 = 0.5013 | – | 1.78e-07
[1], x1 = 0.5611 | – | 1.59e-07
[1], x1 = 0.6204 | – | 1.37e-07
[1], x1 = 0.6824 | – | 1.03e-07
[1], x1 = 0.742 | – | 7.7e-08
[1], x1 = 0.8047 | – | 4.9e-08
[1], x1 = 0.8674 | – | 2.9e-08
[1], x1 = 0.9323 | – | 9e-09
[2], x1 = 0.0541 | 0.161 | –
[2], x1 = 0.1161 | 0.304 | –
[2], x1 = 0.1808 | 0.422 | –
[2], x1 = 0.2438 | 0.515 | –
[2], x1 = 0.3073 | 0.59 | –
[2], x1 = 0.3672 | 0.635 | –
[2], x1 = 0.4224 | 0.657 | –
[2], x1 = 0.445 | 0.661 | –
[2], x1 = 0.4906 | 0.666 | –
[2], x1 = 0.5414 | 0.656 | –
[2], x1 = 0.5976 | 0.625 | –
[2], x1 = 0.6595 | 0.573 | –
[2], x1 = 0.725 | 0.496 | –
[2], x1 = 0.7935 | 0.396 | –
[2], x1 = 0.8667 | 0.27 | –
[2], x1 = 0.9349 | 0.141 | –

CCCCCOC(=O)CC [pentyl propanoate] + CCCCCCCCC
Conditions | excess molar enthalpy [kJ/mol] | excess molar volume [m3/mol]
[1], x1 = 0.0661 | – | 1.34e-07
[1], x1 = 0.1312 | – | 2.47e-07
[1], x1 = 0.1902 | – | 3.19e-07
[1], x1 = 0.2517 | – | 3.88e-07
[1], x1 = 0.3122 | – | 4.31e-07
[1], x1 = 0.3722 | – | 4.6e-07
[1], x1 = 0.4344 | – | 4.77e-07
[1], x1 = 0.4911 | – | 4.73e-07
[1], x1 = 0.5498 | – | 4.62e-07
[1], x1 = 0.6072 | – | 4.37e-07
[1], x1 = 0.6646 | – | 3.9e-07
[1], x1 = 0.7225 | – | 3.49e-07
[1], x1 = 0.778 | – | 2.91e-07
[1], x1 = 0.8335 | – | 2.41e-07
[1], x1 = 0.8887 | – | 1.69e-07
[1], x1 = 0.9434 | – | 1.01e-07
[2], x1 = 0.0584 | 0.187 | –
[2], x1 = 0.1266 | 0.369 | –
[2], x1 = 0.1948 | 0.519 | –
[2], x1 = 0.2641 | 0.631 | –
[2], x1 = 0.329 | 0.703 | –
[2], x1 = 0.3907 | 0.744 | –
[2], x1 = 0.4467 | 0.767 | –
[2], x1 = 0.4973 | 0.768 | –
[2], x1 = 0.5431 | 0.755 | –
[2], x1 = 0.576 | 0.736 | –
[2], x1 = 0.5969 | 0.725 | –
[2], x1 = 0.6505 | 0.674 | –
[2], x1 = 0.7085 | 0.608 | –
[2], x1 = 0.7683 | 0.521 | –
[2], x1 = 0.8297 | 0.411 | –
[2], x1 = 0.8907 | 0.281 | –
[2], x1 = 0.9492 | 0.142 | –

CCCCCOC(=O)CC [pentyl propanoate] + CCCCCCCCCCC
Conditions | excess molar enthalpy [kJ/mol] | excess molar volume [m3/mol]
[1], x1 = 0.079 | – | 1.89e-07
[1], x1 = 0.1498 | – | 3.48e-07
[1], x1 = 0.2179 | – | 4.36e-07
[1], x1 = 0.2836 | – | 5.2e-07
[1], x1 = 0.3484 | – | 5.69e-07
[1], x1 = 0.4116 | – | 6.03e-07
[1], x1 = 0.4733 | – | 6.14e-07
[1], x1 = 0.5329 | – | 6.13e-07
[1], x1 = 0.5902 | – | 5.99e-07
[1], x1 = 0.6462 | – | 5.83e-07
[1], x1 = 0.7023 | – | 5.24e-07
[1], x1 = 0.7545 | – | 4.67e-07
[1], x1 = 0.8065 | – | 3.79e-07
[1], x1 = 0.8561 | – | 3.1e-07
[1], x1 = 0.9045 | – | 2.2e-07
[1], x1 = 0.9538 | – | 1.21e-07
[2], x1 = 0.0724 | 0.248 | –
[2], x1 = 0.153 | 0.458 | –
[2], x1 = 0.229 | 0.62 | –
[2], x1 = 0.3051 | 0.751 | –
[2], x1 = 0.3748 | 0.826 | –
[2], x1 = 0.4452 | 0.863 | –
[2], x1 = 0.5015 | 0.863 | –
[2], x1 = 0.5466 | 0.843 | –
[2], x1 = 0.556 | 0.838 | –
[2], x1 = 0.6046 | 0.802 | –
[2], x1 = 0.6573 | 0.748 | –
[2], x1 = 0.7137 | 0.674 | –
[2], x1 = 0.7726 | 0.585 | –
[2], x1 = 0.8314 | 0.468 | –
[2], x1 = 0.8897 | 0.329 | –
[2], x1 = 0.9449 | 0.182 | –
